PubChem BioAssay AID179 (DTP/NCI, 2004)
Active and inactive are the calls of the source.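 How the source made its calls: active means compounds giving half or more protection of infected cells from virus-caused growth loss, again on retest; inactive means the rest.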

Test system: CEM cells HIV-1 protection, formazan growth assay
Assay: NCI AIDS Antiviral Assay
Conditions: for IC50: measured here: growth of uninfected CEM cells
How it was run: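 CEM (human) cells, HIV-1 infected vs uninfected, 5-point dosing, formazan growth read-out. Retest threshold 50% protection.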

SMILES: O=S(=O)(N=S(c1ccccc1)c1ccccc1)c1ccccc1
- EC50: > 145 µM
- IC50: > 145 µM

SMILES: Brc1ccc2c(c1)C1C(CO2)C(c2ccccc2)=NN1c1ccccc1 (stereo not drawn)
- EC50: > 64.6 µM
- IC50: > 64.6 µM

SMILES: CC1(C)C(=O)C2(C#N)CCC1C2 (stereo not drawn)
- EC50: > 200 µM
- IC50: > 200 µM

SMILES: COC(=O)NC1=Nc2ccccc2C(=O)NN1
- EC50: > 200 µM
- IC50: > 200 µM

SMILES: COc1ccc2c(c1)C(=O)C13CC(C(=O)O)C(OC(C)=O)(CCC21)C3 (stereo not drawn)
- EC50: > 89.1 µM
- IC50: > 89.1 µM

SMILES: COc1ccc(-c2nc3ccccc3s2)cc1S(=O)(=O)O
- EC50: > 105 µM
- IC50: 95.5 µM

SMILES: NS(=O)(=O)c1nn2c(Br)c(-c3ccccc3)nc2s1
- EC50: > 200 µM
- IC50: 1.78 µM

SMILES: CC(=O)OC1CCC2OOC1O2 (stereo not drawn)
- outcome: inactive

SMILES: O=C(CN1C(=O)c2cccc3c(Br)ccc(c23)C1=O)c1ccc(F)cc1
- EC50: > 200 µM
- IC50: 52.5 µM

SMILES: O=C1CC(NC(=O)C(F)(F)F)c2c1csc2Br (stereo not drawn)
- EC50: > 200 µM
- IC50: 115 µM

SMILES: CCOP(=O)(OCC)/C(F)=C/c1ccccc1
- EC50: > 200 µM
- IC50: > 200 µM

SMILES: Cc1[nH]n(-c2ccccc2)c(=O)c1/C=N\C(N)=S
- EC50: > 200 µM
- IC50: 182 µM

SMILES: CN(C)CCNc1ccc2c(=O)n(CCN(C)C)c(=O)n3c4ccccc4c(=O)c1c23
- EC50: > 0.1 µM
- IC50: 0.00933 µM

SMILES: COC1OC2COC1(OC)C1OC(C)(C)OC21 (stereo not drawn)
- EC50: > 200 µM
- IC50: > 200 µM

SMILES: NCCCN(CCCCN(CCCN)Cc1ccccc1)Cc1ccccc1
- EC50: 64.6 µM
- IC50: 70.8 µM

SMILES: COc1ccc(/C=[N+](\[O-])[C@H](COCc2ccccc2)c2ccccc2)cc1
- EC50: > 72.4 µM
- IC50: > 72.4 µM

SMILES: COc1ccc2c(c1)CCCN1CCc3ccccc3C21 (stereo not drawn)
- EC50: > 200 µM
- IC50: 110 µM

SMILES: CNC(=S)NNC1=NCCCCN1
- EC50: > 200 µM
- IC50: 110 µM

SMILES: C#C[C@]1(O)CC[C@H]2[C@@H]3CCC4=C/C(=N/OCCN(C)C)CC[C@]4(C)[C@H]3CC[C@@]21C
- EC50: > 100 µM
- IC50: 4.79 µM

SMILES: Cn1c(=O)c2c(ncn2CCCCn2ccnc2[N+](=O)[O-])n(C)c1=O
- EC50: > 200 µM
- IC50: > 200 µM

SMILES: c1cc2n(n1)CCN2
- EC50: > 2290 µM
- IC50: 170 µM

SMILES: Cn1c(=O)c2c(nc3n(Cc4ccccc4)c(=O)c(NCCCBr)cn23)n(C)c1=O
- EC50: 30.9 µM
- IC50: 41.7 µM

SMILES: Cc1cn(C2C=CCCC2O)c(=O)[nH]c1=O (stereo not drawn)
- EC50: > 200 µM
- IC50: > 200 µM

SMILES: CN(CCN(C)CC(=O)O)CC(=O)O
- EC50: > 617 µM
- IC50: 550 µM

SMILES: Nc1nc(SCC(=O)c2ccccc2)nc2nc3c(c(-c4ccccc4)c12)CCCC3
- EC50: > 100 µM
- IC50: 66.1 µM

SMILES: COC(=O)C1=C(C(=O)OC)C2=S(SC3=C2CCCC3)S1 (stereo not drawn)
- outcome: inactive

SMILES: CC(=O)c1c2c(cc3c1CC1(Cc4cc5c(cc4C1)CCC5)C3)CCC2
- EC50: > 200 µM
- IC50: > 200 µM

SMILES: COC(=O)CC1NC(=O)C1C1(C)OCCO1 (stereo not drawn)
- EC50: > 251 µM
- IC50: > 251 µM

SMILES: Nc1ccc(C(=O)NN2C(=O)C(Cl)C2c2ccc([N+](=O)[O-])cc2)cc1 (stereo not drawn)
- EC50: > 200 µM
- IC50: 4.07 µM

SMILES: Cc1c(O)ccc2c(O)c(NC(=O)c3ccc4c(c3)CCC(C)(C)O4)c(=O)oc12
- EC50: > 200 µM
- IC50: 83.2 µM

SMILES: COc1cc(C2c3cc4c(cc3OC(NN)C2C)OCO4)cc(OC)c1OC (stereo not drawn)
- EC50: > 200 µM
- IC50: 1 µM

SMILES: N#CCC1C2CC3C(C2=O)C13 (stereo not drawn)
- EC50: > 200 µM
- IC50: > 200 µM

SMILES: Cc1cn(C2C[C@H]3ONC[C@H]3O2)c(=O)[nH]c1=O (stereo partly drawn)
- EC50: > 200 µM
- IC50: > 200 µM

SMILES: COc1cccc(/C=C2\N=C(Cl)OC2=O)c1O
- EC50: > 20.4 µM
- IC50: > 20.4 µM

SMILES: O=[N+]([O-])C(C=Nc1ccccc1)C=Nc1ccccc1 (stereo not drawn)
- EC50: > 200 µM
- IC50: 107 µM

SMILES: O=S(=O)(c1ccc(NCSc2nc3ccccc3s2)cc1)c1ccc(NCSc2nc3ccccc3s2)cc1
- EC50: > 12 µM
- IC50: > 12 µM

SMILES: O=S(=O)(O)c1cc[c]([Sb](=[O])([OH])[OH])cc1
- EC50: 0.661 µM
- IC50: 398 µM

SMILES: O=C(/C=C/c1c(O)ccc2ccccc12)c1ccc([N+](=O)[O-])cc1
- EC50: 33.9 µM
- IC50: 58.9 µM

SMILES: CCCC[As](CCCC)SC1CCC2(C)C(=CCC3C4CCC(=O)C4(C)CCC32)C1 (stereo not drawn)
- EC50: > 46.8 µM
- IC50: 15.8 µM

SMILES: Brc1ccc(C[N+]23CN4CN(CN(C4)C2)C3)cc1
- outcome: inactive

SMILES: Cc1cc(Cc2cc(C)c(NC(=O)C(=O)C3CCC4=C(SC5C=CC=CC5N4)C3=O)c(C(C)C)c2)cc(C(C)C)c1NC(=O)C(=O)C1CCC2=C(SC3C=CC=CC3N2)C1=O (stereo not drawn)
- EC50: > 41.7 µM
- IC50: 12 µM

SMILES: COC(=O)C1(CC(=O)OCc2ccccc2)NCCc2c1[nH]c1ccccc21 (stereo not drawn)
- EC50: > 3.31 µM
- IC50: > 3.31 µM

SMILES: O=c1ccc(=O)n(CCc2ccccn2)[nH]1
- EC50: > 200 µM
- IC50: > 200 µM
